Source: paper PMC12711630 (Cell Reports. Physical Science, 2025)
Several values for one entry are separate records, joined by “and”; a condition that tells them apart may be missing. Equal entries are not always repeated. Where two headings read alike, the source gives them in different places. Marks after values point to notes of the source that are not given here.

Assays:
[1] = biological target: T1, (α4)2(β2)3 (HS isoform) α4β2 nAChR WT (Homo sapiens, UniProt P17787+P43681); test: Two-electrode voltage clamp, Xenopus oocytes expressing HS α4β2 nAChR, wild type; type: cell-based; details: for EC50: varenicline variants series
T1 construct: expressed in transfected cells; host or cells: Xenopus laevis oocytes, nuclear injection of cDNA in plasmid pCI (10 α4 : 1 β2 for LS, 1 α4 : 10 β2 for HS)

[2] = biological target: T2, (α4)3(β2)2 (LS isoform) α4β2 nAChR WT (Homo sapiens, UniProt P17787+P43681); test: Two-electrode voltage clamp, Xenopus oocytes expressing LS α4β2 nAChR, wild type; type: cell-based
T2 construct: expressed in transfected cells; host or cells: Xenopus laevis oocytes, nuclear injection of cDNA in plasmid pCI (10 α4 : 1 β2 for LS, 1 α4 : 10 β2 for HS)

[3] = biological target: T3, human α4β2 nAChR (Homo sapiens, UniProt P17787+P43681); test: [3H]epibatidine radioligand binding (saturation and competition), membranes of transfected HEK 293 cells
T3 construct: expressed in transfected cells; host or cells: HEK 293 cells, transient transfection with JetPEI, membranes

[4] = biological target: T4, human α3β4 nAChR (Homo sapiens, UniProt P30926+P32297); test: as above
T4 construct: expressed in transfected cells; host or cells: HEK 293 cells, transient transfection with JetPEI, membranes

[5] = biological target: T5, human α7 nAChR (Homo sapiens, UniProt P36544); test: [125I]α-Bgtx radioligand binding (saturation and competition), membranes of transfected SH-SY5Y cells; details: competition with [125I]α-Bgtx 2-3 nM, Cheng-Prusoff
T5 construct: expressed in transfected cells; host or cells: SH-SY5Y cells, transient transfection with JetPEI, membranes

[6] = biological target: T6, (α4)2(β2)3 (HS isoform) α4β2 nAChR (Homo sapiens, UniProt P17787+P43681); test: Inhibition of ACh EC80 current responses, Xenopus oocytes, HS isoform; type: cell-based
T6 construct: expressed in transfected cells; host or cells: Xenopus laevis oocytes, nuclear injection of cDNA in plasmid pCI (10 α4 : 1 β2 for LS, 1 α4 : 10 β2 for HS)

[7] = biological target: T7, (α4)3(β2)2 (LS isoform) α4β2 nAChR (Homo sapiens, UniProt P17787+P43681); test: Inhibition of ACh EC80 current responses, Xenopus oocytes, LS isoform; type: cell-based
T7 construct: expressed in transfected cells; host or cells: Xenopus laevis oocytes, nuclear injection of cDNA in plasmid pCI (10 α4 : 1 β2 for LS, 1 α4 : 10 β2 for HS)

[8] = biological target: T8, 5-HT3A receptor (Homo sapiens, UniProt P46098); test: Inhibition of [3H]GR65630 binding, transfected HEK293 cell membranes; details: for IC50: n=3
T8 sequence (P46098 24-478): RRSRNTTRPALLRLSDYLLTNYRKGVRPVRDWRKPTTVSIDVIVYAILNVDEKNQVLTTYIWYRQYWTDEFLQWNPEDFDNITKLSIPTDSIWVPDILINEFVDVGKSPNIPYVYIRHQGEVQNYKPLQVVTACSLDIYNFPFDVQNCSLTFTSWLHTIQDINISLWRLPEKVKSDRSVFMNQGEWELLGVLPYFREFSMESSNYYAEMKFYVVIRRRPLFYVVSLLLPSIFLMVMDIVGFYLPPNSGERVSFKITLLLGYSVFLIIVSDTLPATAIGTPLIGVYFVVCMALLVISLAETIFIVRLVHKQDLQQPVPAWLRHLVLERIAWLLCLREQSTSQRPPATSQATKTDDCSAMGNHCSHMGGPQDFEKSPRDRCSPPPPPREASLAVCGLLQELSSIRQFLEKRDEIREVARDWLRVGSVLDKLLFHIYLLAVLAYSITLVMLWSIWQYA

[9] = biological target: T8, 5-HT3A receptor; test: FlexStation fluorescent membrane-potential dye assay, transfected HEK 293 cells; type: cell-based; details: for functional response at 5-HT3A receptors: concentrations up to 30 µM; for EC50: n=4
[10] = physchem
[11] = Spectrophotometric titration pKa determination; details: for protonated fraction of ammonium center: at pH 7.5
[12] = biological target: T9, (α4)2(β2)3 (HS isoform) α4β2 nAChR β2S133V (Homo sapiens, UniProt P17787+P43681, S133V); test: Two-electrode voltage clamp, Xenopus oocytes, HS α4β2 nAChR β2S133V; type: cell-based
T9 construct: expressed in transfected cells; host or cells: Xenopus laevis oocytes, nuclear injection of cDNA in plasmid pCI

[13] = biological target: T10, (α4)2(β2)3 (HS isoform) α4β2 nAChR α4T183V (Homo sapiens, UniProt P17787+P43681, T183V); test: Two-electrode voltage clamp, Xenopus oocytes, HS α4β2 nAChR α4T183V; type: cell-based
T10 construct: expressed in transfected cells; host or cells: Xenopus laevis oocytes, nuclear injection of cDNA in plasmid pCI

[14] = biological target: T11, (α4)2(β2)3 (HS isoform) α4β2 nAChR α4T139V (Homo sapiens, UniProt P17787+P43681, T139V); test: Two-electrode voltage clamp, Xenopus oocytes, HS α4β2 nAChR α4T139V; type: cell-based
T11 construct: expressed in transfected cells; host or cells: Xenopus laevis oocytes, nuclear injection of cDNA in plasmid pCI

[15] = biological target: T12, (α4)2(β2)3 (HS isoform) α4β2 nAChR β2S133Vα4T183V (Homo sapiens, UniProt P17787+P43681, S133V/T183V); test: Two-electrode voltage clamp, Xenopus oocytes, HS α4β2 nAChR β2S133Vα4T183V; type: cell-based
T12 construct: expressed in transfected cells; host or cells: Xenopus laevis oocytes, nuclear injection of cDNA in plasmid pCI

[16] = biological target: T13, (α4)2(β2)3 (HS isoform) α4β2 nAChR β2S133Vα4T139V (Homo sapiens, UniProt P17787+P43681, S133V/T139V); test: Two-electrode voltage clamp, Xenopus oocytes, HS α4β2 nAChR β2S133Vα4T139V; type: cell-based
T13 construct: expressed in transfected cells; host or cells: Xenopus laevis oocytes, nuclear injection of cDNA in plasmid pCI

[17] = biological target: T14, (α4)3(β2)2 (LS isoform) α4β2 nAChR β2S133V (Homo sapiens, UniProt P17787+P43681, S133V); test: Two-electrode voltage clamp, Xenopus oocytes, LS α4β2 nAChR β2S133V; type: cell-based
T14 construct: expressed in transfected cells; host or cells: Xenopus laevis oocytes, nuclear injection of cDNA in plasmid pCI

[18] = biological target: T15, (α4)3(β2)2 (LS isoform) α4β2 nAChR α4T183V (Homo sapiens, UniProt P17787+P43681, T183V); test: Two-electrode voltage clamp, Xenopus oocytes, LS α4β2 nAChR α4T183V; type: cell-based
T15 construct: expressed in transfected cells; host or cells: Xenopus laevis oocytes, nuclear injection of cDNA in plasmid pCI

[19] = biological target: T16, (α4)3(β2)2 (LS isoform) α4β2 nAChR α4T139V (Homo sapiens, UniProt P17787+P43681, T139V); test: Two-electrode voltage clamp, Xenopus oocytes, LS α4β2 nAChR α4T139V; type: cell-based
T16 construct: expressed in transfected cells; host or cells: Xenopus laevis oocytes, nuclear injection of cDNA in plasmid pCI

[20] = biological target: T17, (α4)3(β2)2 (LS isoform) α4β2 nAChR β2S133Vα4T183V (Homo sapiens, UniProt P17787+P43681, S133V/T183V); test: Two-electrode voltage clamp, Xenopus oocytes, LS α4β2 nAChR β2S133Vα4T183V; type: cell-based
T17 construct: expressed in transfected cells; host or cells: Xenopus laevis oocytes, nuclear injection of cDNA in plasmid pCI

[21] = biological target: T18, (α4)3(β2)2 (LS isoform) α4β2 nAChR β2S133Vα4T139V (Homo sapiens, UniProt P17787+P43681, S133V/T139V); test: Two-electrode voltage clamp, Xenopus oocytes, LS α4β2 nAChR β2S133Vα4T139V; type: cell-based
T18 construct: expressed in transfected cells; host or cells: Xenopus laevis oocytes, nuclear injection of cDNA in plasmid pCI

[22] = system: human 5-HT3 serotonin receptor; details: cited from earlier work
[23] = cited from earlier work
[24] = biological target: α4β2; details: read-out: affinity at α4β2; cited from earlier work
[25] = co-applied with ACh EC80 300 µM
[26] = mean + SEM, read-out: pIC50, inhibition of [3H]GR65630 binding (converted)
[27] = [3H]GR65630 0.3 nM, read-out: IC50, inhibition of [3H]GR65630 binding

SMILES: c1ccc2cc3c(cc2c1)C1CNCC3C1 [C2 varenicline 4]
- RE [1]: 0.022 ± 0.0033 ^a
- fold increase in EC50 vs varenicline 1 [1]: 10 fold
- fold reduction of efficacy vs varenicline 1 [1]: 6 fold
- EC50 ([1]; Table 3, HS (α4)2(β2)3): 2.64 ± 0.8 µM
- RE [2]: 0.102 ± 0.012 ^a
- fold increase in EC50 vs varenicline 1 [2]: 10 fold
- fold reduction of efficacy vs varenicline 1 [2]: 4 fold
- EC50 ([2]; Table 3, LS (α4)3(β2)2, varenicline variants series, read-out: EC50): 11.5 ± 1.74 µM
- Ki [3]: 0.0143 ± 0.0016 µM
- fold decrease in affinity compared to varenicline 1 [3]: approximately 30 fold
- Ki ratio α3β4/α4β2 [4]: 18.7
- Ki ([4]; competition with [3H]epibatidine 0.25 nM, Cheng-Prusoff): 0.267 ± 0.073 µM
- Ki [5]: 1.32 µM
- IC50 [6]: 11 ± 1.2 µM
- IC50 [7, 25]: 33 ± 14 µM
- fold increase of IC50 against [3H]GR65630 compared to varenicline 1 [8]: 44 fold
- IC50 [8, 26]: 13.6 µM
- functional response at 5-HT3A receptors [9]: No signiﬁcant responses
- pKa [10]: 9.63 ± 0.08
- protonated fraction of ammonium center [11]: ≥ 90%

SMILES: O=c1cccc2n1C[C@@H]1CNC[C@H]2C1 [Cytisine 3, cytisine]
- RE (relative efficacy, I/ImaxACh) [1]: 0.025 and 0.025 ± 0.004
- RE (relative efficacy, I/ImaxACh) [12]: 0.016 ± 0.002
- RE (relative efficacy, I/ImaxACh) [13]: 0.021 ± 0.003
- RE (relative efficacy, I/ImaxACh) [14]: 0.023 ± 0.001
- RE (relative efficacy, I/ImaxACh) [15]: 0.018 ± 0.003
- RE (relative efficacy, I/ImaxACh) [16]: 0.022 ± 0.009
- EC50 [2]: 2.9 ± 0.8 µM
- RE (relative efficacy, I/ImaxACh) [2]: 0.23 and 0.23 ± 0.08
- EC50 [17]: 5.1 ± 1 µM
- RE (relative efficacy, I/ImaxACh) [17]: 0.21 ± 0.01
- EC50 [18]: 4.6 ± 1 µM
- RE (relative efficacy, I/ImaxACh) [18]: 0.22 ± 0.02
- EC50 [19]: 2.5 ± 0.7 µM
- RE (relative efficacy, I/ImaxACh) [19]: 0.19 ± 0.02
- EC50 [20]: 6.9 ± 1.5 µM
- RE (relative efficacy, I/ImaxACh) [20]: 0.19 ± 0.01
- EC50 [21]: 5.8 ± 1.4 µM
- RE (relative efficacy, I/ImaxACh) [21]: 0.18 ± 0.01
- fold less potent than varenicline 1 [22]: 2,000 fold
- pKa ([10]; pKa value): 8.07

SMILES: c1ccc2nc3c(nc2c1)C1CNCC3C1 [Isovarenicline 5]
- RE [1]: 0.0071 ± 0.00086 ^a
- fold reduction of efficacy vs varenicline 1 [1]: 20 fold
- EC50 ([1]; Table 3, HS (α4)2(β2)3): 13.3 ± 2.5 µM
- RE [2]: 0.054 ± 0.013 ^a
- fold reduction of efficacy vs varenicline 1 [2]: 7 fold
- EC50 ([2]; read-out: EC50): 26 ± 8.5 µM
- Ki ([3]; read-out: Ki α4β2): 5.46 µM
- Ki [4]: 67.7 µM
- Ki ratio α3β4/α4β2 [4]: 12
- Ki [5]: 127 µM
- IC50 [6]: 70 ± 12 µM
- IC50 [7]: 142 ± 21 µM
- fold increase of IC50 against [3H]GR65630 compared to varenicline 1 [8]: 165 fold
- IC50 [8, 27]: 49.6 µM
- functional response at 5-HT3A receptors [9]: No signiﬁcant responses
- pKa [10]: 8.44 ± 0.09
- protonated fraction of ammonium center [11]: ≥ 90%

SMILES: c1cnc2nc3c(nc2n1)C1CNCC3C1 [N2 varenicline 6]
- RE [1]: 0.0010 ± 0.0001 ^a
- RE [2]: 0.0032 ± 0.0023 ^a
- IC50 ([6]; co-applied with ACh EC80 30 µM): > 1000 µM
- IC50 [7, 25]: > 1000 µM
- fold increase of IC50 against [3H]GR65630 compared to varenicline 1 [8]: 250 fold
- IC50 [8, 27]: 75.8 µM
- functional response at 5-HT3A receptors [9]: No signiﬁcant responses
- pKa [10]: 7.31 ± 0.05

SMILES: c1cnc2cc3c(cc2n1)[C@@H]1CNC[C@H]3C1 [Varenicline 1, varenicline, reference compound]
- RE ([1]; Table 3, HS (α4)2(β2)3, relative to maximal ACh response): 0.14 ± 0.012
- RE ([2]; Table 3, LS (α4)3(β2)2, relative to maximal ACh response): 0.38 ± 0.025
- reduction of RE vs WT [19]: 50%
- IC50 [8, 26]: 0.304 µM
- EC50 ([9]; EC50, activation of 5-HT3A receptors, membrane-potential sensitive dye): 0.4 µM
- EC50 ([9]; pEC50, activation of 5-HT3A receptors, mean + SEM): 0.437 µM
- pKa, literature value ([23]; ref Pfizer[80]): 9.2
- pKa, literature value ([23]; ref Rollema et al.[81]): 9.3
- pKa, literature value ([23]; ref Unal et al.[82]): 9.22 ± 0.13
- pKa [11]: 8.9 ± 0.1

SMILES: c1ccc2c(c1)C1CNCC2C1 [benzo variant, 2,3,4,5-tetrahydro-1H-1,5-methanobenzo[d]azepine]
- Ki [24]: 0.02 µM
